Test results reported in publication PMC6570762, “Identification of a binding protein for sesamin and characterization of its roles in plant growth” (Scientific Reports, 2019).

Target: T1, Steroleosin B (GST-fused Steroleosin B) (Sesamum indicum, UniProt Q8LKV5)
T1 construct: gene SOP3
T1 sequence (Q8LKV5 1-362): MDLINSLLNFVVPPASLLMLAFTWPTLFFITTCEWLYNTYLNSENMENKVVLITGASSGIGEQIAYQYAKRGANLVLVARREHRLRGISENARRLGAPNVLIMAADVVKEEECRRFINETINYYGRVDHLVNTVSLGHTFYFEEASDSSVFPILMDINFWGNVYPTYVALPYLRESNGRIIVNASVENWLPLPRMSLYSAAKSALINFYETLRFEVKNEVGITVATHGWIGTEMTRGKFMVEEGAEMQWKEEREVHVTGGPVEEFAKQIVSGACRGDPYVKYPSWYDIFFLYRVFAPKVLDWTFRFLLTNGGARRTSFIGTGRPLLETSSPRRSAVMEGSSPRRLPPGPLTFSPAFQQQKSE
Assay: STD-NMR ([…] MHz)
Assay type: binding
Details: 60 μM sesamin, 0.5 μM GST-Steroleosin B, stated ligand:protein ratio 60:1; PBS in D2O, 5% DMSO-d6, 298 K; GST alone as control

With `c1cc2c(cc1[C@H]1OC[C@H]3[C@@H]1CO[C@@H]3c1ccc3c(c1)OCO3)OCO2` [sesamin] as the compound, how does the “STD-NMR (800 MHz)” value read?
Its value is “these results demonstrate the direct interaction between sesamin and Steroleosin B”.
